Measurements taken from the NIST ThermoML archive (doi:10.1016/j.jct.2016.03.030).

Assay: xn = mol fraction of the nth substance listed
Details: 100 kPa, Liquid; for viscosity: Falling or rolling sphere viscometry; for mass density: Vibrating tube method

CCCCC[N+]1(C)CCOCC1.[Br-] [4-methyl-4-pentylmorpholinium bromide] + O
Details	mass density, 298.15 K [kg/m3]	mass density, 303.15 K [kg/m3]	mass density, 308.15 K [kg/m3]	mass density, 313.15 K [kg/m3]	mass density, 318.15 K [kg/m3]	viscosity, 298.15 K [mPa·s]	viscosity, 303.15 K [mPa·s]	viscosity, 308.15 K [mPa·s]	viscosity, 313.15 K [mPa·s]	viscosity, 318.15 K [mPa·s]
x1 = 0.0316	1072.8	1070.5	1067.9	1065.3	1062.6	1.957	1.7	1.484	1.309	1.159
x1 = 0.0695	1127.6	1124.5	1121.3	1118.1	1114.9	4.131	3.505	2.997	2.586	2.252
x1 = 0.0965	1153.8	1150.6	1147.2	1143.9	1140.5	6.746	5.63	4.74	4.035	3.465
x1 = 0.1196	1170	1166.6	1163.3	1159.8	1156.4	9.795	8.076	6.709	5.642	4.796
x1 = 0.1522	1187.7	1184.4	1181	1177.5	1174.1	16.25	13.14	10.79	8.994	7.569
x1 = 0.2054	1208.2	1204.9	1201.5	1198.1	1194.7	36.11	28.07	22.24	17.82	14.56
x1 = 0.219	1212.2	1208.8	1205.5	1202.1	1198.7	44.38	34.04	26.62	21.2	17.13
x1 = 0.2438	1218.9	1215.6	1212.2	1208.9	1205.5	64.59	48.66	37.45	29.17	23.22
x1 = 0.2754	1226	1222.7	1219.4	1216.1	1212.7	103.9	76.46	57.57	44.03	34.22
